Results on 19 molecules are retold here after patent US6528528B2 (Warner-Lambert Company, priority 1997, dated 2003).

A value given as a limit tells only on which side of the number the result lay.

The target of one experiment is T1, rabbit reticulocyte 15-LO (Oryctolagus cuniculus, UniProt P12530).
T1 construct: Fifteen-lipoxygenase was obtained from phenylhydrazine-treated rabbits and purified per the method of Rapoport; from tissue; host or cells: reticulocytes of phenylhydrazine-treated rabbits
T1 sequence (P12530 1-663): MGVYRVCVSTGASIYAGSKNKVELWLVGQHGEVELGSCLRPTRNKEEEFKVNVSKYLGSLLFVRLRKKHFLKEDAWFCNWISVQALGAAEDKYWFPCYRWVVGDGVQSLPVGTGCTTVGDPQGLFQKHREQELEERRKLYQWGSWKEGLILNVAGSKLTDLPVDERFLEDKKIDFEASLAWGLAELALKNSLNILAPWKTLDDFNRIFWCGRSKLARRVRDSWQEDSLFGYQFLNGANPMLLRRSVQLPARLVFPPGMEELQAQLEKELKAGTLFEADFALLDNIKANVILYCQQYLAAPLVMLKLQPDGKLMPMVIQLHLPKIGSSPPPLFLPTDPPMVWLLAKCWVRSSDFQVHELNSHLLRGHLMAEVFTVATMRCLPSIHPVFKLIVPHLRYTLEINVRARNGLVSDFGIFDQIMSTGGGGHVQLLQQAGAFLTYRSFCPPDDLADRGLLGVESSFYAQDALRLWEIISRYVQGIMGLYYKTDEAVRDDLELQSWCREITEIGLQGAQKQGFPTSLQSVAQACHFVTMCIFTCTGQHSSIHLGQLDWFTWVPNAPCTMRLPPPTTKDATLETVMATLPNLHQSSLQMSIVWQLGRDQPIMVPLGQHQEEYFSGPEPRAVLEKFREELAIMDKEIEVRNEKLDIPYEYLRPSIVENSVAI
The experiment in a line: Rabbit Reticulocyte 15-LO Assay (h15LO). The note with it: 0.25 h; Table 2; @ 10 μM; read-out: h15LO % @ 10 μM. The format is biochemical. As to the method:
Rabbit Reticulocyte 15-LO Assay (h15LO)
The present 15-LO assay takes advantage of the ability of 15-LO to oxidize the fatty acid linoleic acid to the hydroperoxy fatty acid 13-(S)HPODE, resulting in the formation of a conjugated diene. The 15-LO inhibitors are incubated with 15-LO enzyme in the presence of linoleic acid substrate. The initial reaction is compared to an uninhibited (maximal) reaction to yield % inhibition. […] This prevents artificial nonenzyme lipid peroxidation and product breakdown in the sample. 13-HPODE is quantitated by comparing peak areas of individual samples with those from a standard curve generated using authentic 13-HODE. This assay is performed using 2U of rabbit reticulocyte 15-LO in the presence of 174 μM linoleic acid. The reaction is incubated for 15 minutes at 4° C. The total reaction volume is 100 μL in PBS containing 0.2% Na cholate.
Fifteen-lipoxygenase was obtained from phenylhydrazine-treated rabbits and purified per the method of Rapoport (Rapoport S. M., Schewe T., Wiesner R., et al. The lipoxygenase of reticulocytes. Purification, characterization, and biological dynamics of the lipoxygenase; its identity with the respiratory inhibitors of the reticulocyte. European Journal of Biochemistry, 1979;96:545-561). The following chemicals were purchased and used as received: linoleic acid (NUJCheck Prep), 13-HPODE (Biomol Research Labs), sodium cholate (Sigma), trimethyl phosphite (Fluka Chemicals).
For the molecule `O=C(Nc1ccccc1)c1cc(NC(=S)Nc2cc(Cl)cc(Cl)c2)ccc1F` [Example 101, 5-[3-(3,5-Dichlorophenyl)-thioureido]-2-fluoro-N-phenyl-benzamide], the inhibition at 10 µM stood at 66%.

The same experiment, now with this note: Table 1; 2U rabbit reticulocyte 15-LO, 174 μM linoleic acid, 15 minutes at 4° C.
What is called IC50 is the concentration that inhibits the measured activity by half. Read a high IC50 as weaker potency. Molecule `COc1ccc(NC(=O)c2ccccc2)cc1N` [Example 21, N-(3-Amino-4-methoxyphenyl)-benzamide] showed an IC50 of 2130 nM.

Still in this experiment, the particulars now being: Table 2; 2U rabbit reticulocyte 15-LO, 174 μM linoleic acid, 15 minutes at 4° C.
Molecule `O=C(Nc1ccccc1)c1cccc(Nc2cc(Cl)cc(Cl)c2)c1` [Example 26, 3-(3,5-Dichloro-phenylamino)-N-phenyl-benzamide] gave an IC50 of 1600 nM.

Take `COc1ccc(C(=O)Nc2ccccc2)cc1Nc1cccc(C(F)(F)F)c1` [Example 30, 3-(3-Trifluoromethyl-phenylamino)-4-methoxy-N-phenyl-benzamide]: the IC50 came out at 10 nM.

On to `Cc1ccc(C(=O)Nc2ccccc2)cc1Nc1ccccc1` [Example 38, 3-Phenylamino-4-methyl-N-phenyl-benzamide], for which the IC50 is more than 3000 nM.

Regarding `COc1ccc(C(=O)Nc2ccc(Cl)c(Cl)c2)cc1Nc1cccc(C(F)(F)F)c1` [Example 47, 4-Methoxy-3-(3-trifluoromethyl-phenylamino)-N-(3,4-dichlorophenyl)-benzamide], the IC50 is 100 nM.

Molecule `COc1ccc(C(=O)Nc2ccccc2)cc1NC(=S)Nc1ccc(Cl)c(C(F)(F)F)c1` [Example 73, 3-[3-(4-Chloro-3-trifluoromethylphenyl)-thioureido]-4-methoxy-N-phenyl-benzamide] came in with an IC50 of 16 nM.

The molecule `COc1ccc(C(=O)Nc2ccc(F)c(F)c2)cc1NS(=O)(=O)c1cc(Cl)cc(Cl)c1` [Example 116, 3-(3,5-Dichloro-benzenesulfonylamino)-4-methoxy-N-(3,4-difluorophenyl)-benzamide] displayed an IC50 of 20 nM.

`COc1ccc(C(=O)Nc2ccccc2)cc1NS(=O)(=O)c1ccc2ccccc2c1` [Example 140, 3-(Naphthalene-2-sulfonylamino)-4-methoxy-N-phenyl-benzamide] had an IC50 of 39 nM.

`O=C(Nc1ccccc1)c1ccc(O)c(Nc2ccccc2)c1` [Example 145, 4-Hydroxy-3-phenylamino-N-phenyl-benzamide] returned an IC50 of 180 nM.

On to `CCOC(=O)c1cccc(NC(=O)c2ccc(OC)c(N)c2)c1` [Example 148, 3-(3-Amino-4-methoxy-benzoylamino)-benzoic Acid Ethyl Ester], for which it took 613 nM to reach half-maximal inhibition (IC50).

In turn, `COc1ccc(NC(=O)c2ccc(F)c(F)c2)cc1N` [Example 150, 3,4-Difluoro-N-(3-amino-4-methoxy-phenyl)-benzamide] displayed a 50% inhibitory concentration (IC50) of 205 nM.

For the molecule `COc1ccc(C(=O)Nc2ccccc2)cc1Nc1ccc(F)cc1` [Example 153, 3-(4-Fluoro-phenylamino)-4-methoxy-N-phenyl-benzamide], the IC50 amounted to 54 nM.

The experiment is the same for the next values; noted with them: Table 2; concentration not given.
Turning to `Nc1cc(C(=O)Nc2ccccc2)ccc1OC(F)(F)F` [Example 147, 3-Amino-4-trifluoromethoxy-N-phenyl-benzamide], the “h15LO, value given as bare %” value is 37.05%.

In the case of `Nc1cc(NC(=O)c2ccc(F)c(F)c2)ccc1F` [Example 151, 3,4-Difluoro-N-(3-amino-4-fluoro-phenyl)-benzamide], the “h15LO, value given as bare %” value was found to be 82.66%.

Consider `COc1ccc(NC(=O)Nc2ccc(Cl)c(Cl)c2)cc1N` [Example 152, 1-(3-Amino-4-methoxy-phenyl)-3-(3,4-dichloro-phenyl)-urea], for which the “h15LO, value given as bare %” value was 57.49%.

Take `COc1ccc(C(=O)Nc2ccc(F)cc2)cc1Nc1cc(Cl)cc(Cl)c1` [Example 154]: the “h15LO, value given as bare %” value is reported as 97.66%.

With `COc1ccc(C(=O)Nc2ccc(F)cc2)cc1Nc1ccc(F)cc1` [Example 155, 3-(4-Fluoro-phenylamino)-4-methoxy-N-(4-fluoro-phenyl)-benzamide], the “h15LO, value given as bare %” value was determined as 94.44%.

In the case of `COC(=O)c1cccc(NC(=O)c2ccc(OC)c(Nc3cccc(C(F)(F)F)c3)c2)c1` [Example 156, 3-[4-Methoxy-3-(3-trifluoromethyl-phenylamino)-benzoylamino]-benzoic Acid Methyl Ester], the “h15LO, value given as bare %” value is 90.33%.
